# Results reported in paper PMC6478823, “A suite of phenotypic assays to ensure pipeline diversity when prioritizing drug-like Cryptosporidium growth inhibitors” (Nature Communications, 2019).
# Test system: C. parvum
# Test: DNA replication assay (EdU incorporation)
# Format: cell-based, Cryptosporidium parvum
# Details: compound at EC90; average of replicates
# From the text: Following cell invasion, Cryptosporidium trophozoites grow and multiply to give rise to multinucleated type I meronts (Fig. 3a). The thymidine analog 5-ethynyl-2′-deoxyuridine (EdU) is efficiently incorporated into newly synthesized DNA, and can be detected using click chemistry. We used EdU to measure parasite intracellular DNA replication, as a surrogate for the more complex phenotype of intracellular growth and division. The approach for differentially labeling newly synthesized parasite DNA compared to host cell DNA was to take advantage of the fact that C. parvum replicates more quickly than the nearly confluent host cells. Thus, by adding EdU shortly before egress, it was possible to preferentially label replicating parasites (Fig. 3b, c). DNA staining with Hoechst labeled all of the host and parasite DNA, making it challenging to visualize and quantify parasite DNA. A simple DNA stain would also not distinguish pre-existing DNA from newly synthesized DNA (Fig. 3c). In contrast, EdU labeling only occurred with incorporation into newly synthesized DNA. Incorporated EdU was then easily stained for immunofluorescence and labeled parasites were quantified using high-content microscopy and an NIH ImageJ macro (Fig. 3c, DMSO condition). The […] hydroxyurea (10 mM), a known inhibitor of DNA replication, was used as a positive control for assay validation. […] Compounds with activity in this assay cannot be concluded to specifically target DNA replication, which is a complex phenotype.
# Confluent HCT-8 cell monolayers in glass bottom plates were infected with C. parvum, and compounds were added at EC90 following invasion. At 9 h post-infection, 10 µM EdU was added, followed by incubation for another 2 h, and then washing, fixing, and staining for microscopy. […] 40 × dry objective (NA = 0.7); scale = 5 µm. Arrows indicate selected parasites with EdU-labeled DNA. d Quantification of EdU incorporation. […] Data are mean and SD of 2–5 biological replicates.
# After incubation of cells with EdU for 2 h, cells were washed 3 times with PBS-D-gal and then fixed with PBS containing 4% PFA. Cells were then permeabilized and stained for EdU using the Click-iT® assay kit (Thermo Fisher Scientific, catalog# C10340) as per the manufacturer’s instructions. Cells were then imaged by focusing on parasites (note that the host cell nuclei are in a different focal plane) using a 40 × dry objective (0.7 NA) and EdU, and lectin numbers quantified using ImageJ software and the custom macro in Supplementary Method 1.
row,Compound,"DNA Synthesis Assay: Mean % Inhibition of EdU-labeling (normalized to parasite numbers), Average"
1,O=C(NC(c1ccccc1)c1ccc2cccnc2c1O)c1ccccc1 (stereo not drawn) [A-5],99.95%
2,Oc1c(CN2CCN(c3ccccc3F)CC2)cc(Br)c2cccnc12 [A-6],89.49%
3,CCOc1ccc(Cl)c2c1B(O)OC2CN (stereo not drawn) [AN6426],86.81%

# Same assay, conditions: compound at EC90; single replicate 1
row,Compound,"DNA Synthesis Assay: Mean % Inhibition of EdU-labeling (normalized to parasite numbers), Replicate 1"
1,O=C(NC(c1ccccc1)c1ccc2cccnc2c1O)c1ccccc1 (stereo not drawn) [A-5],100.00%
2,Oc1c(CN2CCN(c3ccccc3F)CC2)cc(Br)c2cccnc12 [A-6],98.00%
3,CCOc1ccc(Cl)c2c1B(O)OC2CN (stereo not drawn) [AN6426],80.80%

# Same assay, conditions: compound at EC90; single replicate 2
row,Compound,"DNA Synthesis Assay: Mean % Inhibition of EdU-labeling (normalized to parasite numbers), Replicate 2"
1,O=C(NC(c1ccccc1)c1ccc2cccnc2c1O)c1ccccc1 (stereo not drawn) [A-5],100.00%
2,Oc1c(CN2CCN(c3ccccc3F)CC2)cc(Br)c2cccnc12 [A-6],97.32%
3,CCOc1ccc(Cl)c2c1B(O)OC2CN (stereo not drawn) [AN6426],89.13%

# Same assay, conditions: compound at EC90; single replicate 3
row,Compound,"DNA Synthesis Assay: Mean % Inhibition of EdU-labeling (normalized to parasite numbers), Replicate 3"
1,O=C(NC(c1ccccc1)c1ccc2cccnc2c1O)c1ccccc1 (stereo not drawn) [A-5],99.80%
2,Oc1c(CN2CCN(c3ccccc3F)CC2)cc(Br)c2cccnc12 [A-6],80.45%
3,CCOc1ccc(Cl)c2c1B(O)OC2CN (stereo not drawn) [AN6426],90.50%

# Same assay, conditions: compound at EC90; single replicate 4
row,Compound,"DNA Synthesis Assay: Mean % Inhibition of EdU-labeling (normalized to parasite numbers), Replicate 4"
1,O=C(NC(c1ccccc1)c1ccc2cccnc2c1O)c1ccccc1 (stereo not drawn) [A-5],100.00%
2,Oc1c(CN2CCN(c3ccccc3F)CC2)cc(Br)c2cccnc12 [A-6],78.02%

# Same assay, conditions: compound at EC90; single replicate 5
row,Compound,"DNA Synthesis Assay: Mean % Inhibition of EdU-labeling (normalized to parasite numbers), Replicate 5"
1,Oc1c(CN2CCN(c3ccccc3F)CC2)cc(Br)c2cccnc12 [A-6],93.68%

# Same assay, conditions: yes/no grouping by phenotypic assay result; compound at EC90
row,Compound,DNA synthesis
1,O=C(NC(c1ccccc1)c1ccc2cccnc2c1O)c1ccccc1 (stereo not drawn) [A-5],yes
2,Oc1c(CN2CCN(c3ccccc3F)CC2)cc(Br)c2cccnc12 [A-6],yes

# Test system: C. parvum DMC1 expression
# Test: Sexual differentiation assay (DMC1 expression)
# Format: cell-based, Cryptosporidium parvum
# Details: compound at asexual EC90, 48-72 h; average of replicates
# From the text: We utilized DMC1 as a marker of C. parvum sexual development, and used the anti-DMC1 monoclonal antibody to develop a moderate-throughput high-content microscopy assay for characterizing anticryptosporidial compounds (Fig. 6a). […] Therefore, in order to enable numerical comparison of the ability of compounds to block sexual development with moderate throughput, we adopted a strategy of reporting the percent inhibition of DMC1 expression by the previously determined EC90 of each compound in the standard asexual development assay (Fig. 6c and Supplementary Table 2).
# Fig. 6 Assay to measure asexual-to-sexual-stage conversion. a Schematic of the experimental approach. […] For b and c the mean and SD combined from at least two biological replicates with four technical replicates per experiment are shown. […] At given time points post-infection, infected cells were washed 3 times with PBS containing 111 mM of D-galactose, fixed for 15 min at room temperature with 4% paraformaldehyde in PBS, and permeabilized with 0.25% triton X-100 in PBS for 10 min at 37 °C. Cells were then washed 3 times with PBS and blocked at least overnight at 4 °C with 1% BSA in PBS (blocking buffer). Cells were stained with monoclonal antibody (1H10G7), either neat culture supernatant or 12.8 µg/mL of purified IgG in blocking buffer for 1 h at 37 °C, followed by 2 washes with PBS. Cells were then co-stained with a 1:500 dilution (4 µg/mL) of Alexa Fluor 568 goat anti-mouse IgG (Invitrogen, catalog# A-11004) and 1.33 µg/mL fluorescein-labeled Vicia villosa lectin (Vector Laboratories, catalog# FL-1231) diluted in blocking buffer for 1 h at 37 °C. Stains were then removed and 0.09 mM Hoechst 33258 (AnaSpec, catalog# AS-83219) also diluted in blocking buffer was added for another 15 min at 37 °C, followed by 2 PBS washes and imaging on a Nikon Eclipse Ti2000 epifluorescence microscope run with NIS-Elements Advanced Research software (Nikon, USA) and equipped with an EXi blue fluorescent microscopy camera (QImaging, Canada). For enumerating parasites, tiled 2 × 2 images with 15% overlapping edges were taken using a 40 × dry objective (0.7 NA), and for finer details, Z stack images were acquired using a 60 × oil objective (1.4 NA). Lectin positive cells in focus were first counted, followed by DMC1.
# For compound dose-response studies, the same assay was performed in 384-well plates and imaged using a 20 × dry objective (NA = 0.45). Tiled 4 × 4 to 6 × 6 images were taken. Images were analyzed using ImageJ software and the custom macro provided in Supplementary Method 2.
row,Compound,"Asexual to sexual differentiation: Mean % DMC1 inhibition (normalized to host nuclei), Average"
1,O=C(NC(c1ccccc1)c1ccc2cccnc2c1O)c1ccccc1 (stereo not drawn) [A-5],65.35%
2,Oc1c(CN2CCN(c3ccccc3F)CC2)cc(Br)c2cccnc12 [A-6],17.22%
3,CCOc1ccc(Cl)c2c1B(O)OC2CN (stereo not drawn) [AN6426],62.47%

# Same assay, conditions: compound at asexual EC90, 48-72 h; single replicate 1
row,Compound,"Asexual to sexual differentiation: Mean % DMC1 inhibition (normalized to host nuclei), Replicate 1a"
1,O=C(NC(c1ccccc1)c1ccc2cccnc2c1O)c1ccccc1 (stereo not drawn) [A-5],63.04%
2,Oc1c(CN2CCN(c3ccccc3F)CC2)cc(Br)c2cccnc12 [A-6],31.05%
3,CCOc1ccc(Cl)c2c1B(O)OC2CN (stereo not drawn) [AN6426],60.83%

# Same assay, conditions: compound at asexual EC90, 48-72 h; single replicate 2
row,Compound,"Asexual to sexual differentiation: Mean % DMC1 inhibition (normalized to host nuclei), Replicate 2a"
1,O=C(NC(c1ccccc1)c1ccc2cccnc2c1O)c1ccccc1 (stereo not drawn) [A-5],67.67%
2,Oc1c(CN2CCN(c3ccccc3F)CC2)cc(Br)c2cccnc12 [A-6],3.39%
3,CCOc1ccc(Cl)c2c1B(O)OC2CN (stereo not drawn) [AN6426],64.12%

# Test system: C. parvum
# Test: not given
# Format: cell-based, Cryptosporidium parvum
# Details: compound at EC90; average of replicates
# Experimental: The first step in infection is host cell invasion, which involves a complex process encompassing oocyst excystation, parasite motility, adhesion, and parasitophorous vacuole formation (Fig. 2a). Our strategy to assay for compounds affecting invasion was simply to expose C. parvum to compounds immediately after triggering excystation and throughout the invasion process, and then enumerate the parasite vacuoles after 3 h, prior to allowing the parasites to replicate (summarized in Fig. 2b).
# Fig. 2 Invasion Assay. a Overview of life cycle stage investigated during the invasion assay. Representative TEM images of a C. parvum oocyst and HCT-8 cell shortly after infection (Scale bar = 500 nm). b Schematic of experimental design. […] Each point represents the mean and SD of at least two biological replicates with four technical replicates per experiment.
# C. parvum invasion inhibition was measured by modifying the 48 h growth inhibition assay described above. […] In parallel, Iowa strain oocysts were excysted. […] Assay plates were incubated at 37 °C and 5% CO2 for 3 h.
row,Compound,"Invasion Assay: Mean % Inhibition (parasites), Average"
1,O=C(NC(c1ccccc1)c1ccc2cccnc2c1O)c1ccccc1 (stereo not drawn) [A-5],-13.46%
2,Oc1c(CN2CCN(c3ccccc3F)CC2)cc(Br)c2cccnc12 [A-6],-20.21%
3,CCOc1ccc(Cl)c2c1B(O)OC2CN (stereo not drawn) [AN6426],-16.44%

# Same assay, conditions: compound at EC90; single biological replicate 1
row,Compound,"Invasion Assay: Mean % Inhibition (parasites), Replicate 1a"
1,O=C(NC(c1ccccc1)c1ccc2cccnc2c1O)c1ccccc1 (stereo not drawn) [A-5],-13%
2,Oc1c(CN2CCN(c3ccccc3F)CC2)cc(Br)c2cccnc12 [A-6],-18%
3,CCOc1ccc(Cl)c2c1B(O)OC2CN (stereo not drawn) [AN6426],-18%

# Same assay, conditions: compound at EC90; single biological replicate 2
row,Compound,"Invasion Assay: Mean % Inhibition (parasites), Replicate 2a"
1,O=C(NC(c1ccccc1)c1ccc2cccnc2c1O)c1ccccc1 (stereo not drawn) [A-5],-14%
2,Oc1c(CN2CCN(c3ccccc3F)CC2)cc(Br)c2cccnc12 [A-6],-23%
3,CCOc1ccc(Cl)c2c1B(O)OC2CN (stereo not drawn) [AN6426],-15%

# Same assay, conditions: yes/no grouping by phenotypic assay result; compound at EC90
row,Compound,Sporozoite invasion
1,O=C(NC(c1ccccc1)c1ccc2cccnc2c1O)c1ccccc1 (stereo not drawn) [A-5],no
2,Oc1c(CN2CCN(c3ccccc3F)CC2)cc(Br)c2cccnc12 [A-6],no

# Test system: C. parvum
# Test: Egress, motility, reinvasion assay (PV ratio)
# Details: compound at EC90; average of replicates
# Experimental: For quantification of parasitophorous vacuoles over time, HCT-8 cells were grown to greater than 90% confluence in 384-well plates and infected with 11,000 oocysts after triggering excystation.
row,Compound,"Egress and Reinvasion Assay: Mean PV ratios (19.5h:6h), Average"
1,O=C(NC(c1ccccc1)c1ccc2cccnc2c1O)c1ccccc1 (stereo not drawn) [A-5],0.32
2,Oc1c(CN2CCN(c3ccccc3F)CC2)cc(Br)c2cccnc12 [A-6],0.79
3,CCOc1ccc(Cl)c2c1B(O)OC2CN (stereo not drawn) [AN6426],0.93

# Same assay, conditions: compound at EC90; single replicate 1
row,Compound,"Egress and Reinvasion Assay: Mean PV ratios (19.5h:6h), Replicate 1a"
1,O=C(NC(c1ccccc1)c1ccc2cccnc2c1O)c1ccccc1 (stereo not drawn) [A-5],0.55
2,Oc1c(CN2CCN(c3ccccc3F)CC2)cc(Br)c2cccnc12 [A-6],0.65
3,CCOc1ccc(Cl)c2c1B(O)OC2CN (stereo not drawn) [AN6426],1.07

# Same assay, conditions: compound at EC90; single replicate 2
row,Compound,"Egress and Reinvasion Assay: Mean PV ratios (19.5h:6h), Replicate 2a"
1,O=C(NC(c1ccccc1)c1ccc2cccnc2c1O)c1ccccc1 (stereo not drawn) [A-5],0.10
2,Oc1c(CN2CCN(c3ccccc3F)CC2)cc(Br)c2cccnc12 [A-6],0.93
3,CCOc1ccc(Cl)c2c1B(O)OC2CN (stereo not drawn) [AN6426],1.05

# Same assay, conditions: compound at EC90; single replicate 3
row,Compound,"Egress and Reinvasion Assay: Mean PV ratios (19.5h:6h), Replicate 3a"
1,CCOc1ccc(Cl)c2c1B(O)OC2CN (stereo not drawn) [AN6426],0.86

# Same assay, conditions: compound at EC90; single replicate 4
row,Compound,"Egress and Reinvasion Assay: Mean PV ratios (19.5h:6h), Replicate 4a"
1,CCOc1ccc(Cl)c2c1B(O)OC2CN (stereo not drawn) [AN6426],0.75
